Laboratory results published in patent publication US10526280B2 (University of Pittsburgh—Of the Commonwealth System of …, priority 2014, dated 2020).
Like-named read-outs stand apart in the source and are kept apart here.

How the values were obtained:
KCNQ2/3 channels = molecular target: T1, KCNQ2/3 channels (Homo sapiens, UniProt O43525+O43526); assay: KCNQ2/3 currents, voltage clamp of CHO cells transiently expressing heterologous KCNQ2/3 channels; assay type: cell-based
T1 construct: expressed in transfected cells; host or cells: CHO cells, transient expression
T1 sequence (O43526 whole entry): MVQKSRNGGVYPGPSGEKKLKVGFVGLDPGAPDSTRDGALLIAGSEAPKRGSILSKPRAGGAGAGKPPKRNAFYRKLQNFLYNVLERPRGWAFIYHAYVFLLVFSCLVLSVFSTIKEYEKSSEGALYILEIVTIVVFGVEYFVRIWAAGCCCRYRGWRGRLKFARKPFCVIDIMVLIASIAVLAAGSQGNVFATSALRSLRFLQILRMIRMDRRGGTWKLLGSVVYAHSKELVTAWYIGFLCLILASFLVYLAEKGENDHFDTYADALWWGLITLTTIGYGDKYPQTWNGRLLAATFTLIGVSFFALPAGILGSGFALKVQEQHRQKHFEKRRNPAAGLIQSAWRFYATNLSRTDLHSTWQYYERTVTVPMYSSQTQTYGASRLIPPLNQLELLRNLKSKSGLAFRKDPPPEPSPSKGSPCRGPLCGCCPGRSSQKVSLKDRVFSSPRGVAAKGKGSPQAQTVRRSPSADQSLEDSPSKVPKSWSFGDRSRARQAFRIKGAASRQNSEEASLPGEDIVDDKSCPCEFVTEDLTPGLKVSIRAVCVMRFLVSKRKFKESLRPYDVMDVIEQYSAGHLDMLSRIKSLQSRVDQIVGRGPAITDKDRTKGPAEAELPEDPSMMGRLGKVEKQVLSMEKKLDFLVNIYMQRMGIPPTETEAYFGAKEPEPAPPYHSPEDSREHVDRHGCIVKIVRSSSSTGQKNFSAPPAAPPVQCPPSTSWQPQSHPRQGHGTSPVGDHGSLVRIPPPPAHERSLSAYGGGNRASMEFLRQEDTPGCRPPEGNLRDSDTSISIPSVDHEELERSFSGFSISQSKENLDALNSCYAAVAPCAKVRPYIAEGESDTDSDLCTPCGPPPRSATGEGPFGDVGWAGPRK
T1 sequence (O43525 whole entry): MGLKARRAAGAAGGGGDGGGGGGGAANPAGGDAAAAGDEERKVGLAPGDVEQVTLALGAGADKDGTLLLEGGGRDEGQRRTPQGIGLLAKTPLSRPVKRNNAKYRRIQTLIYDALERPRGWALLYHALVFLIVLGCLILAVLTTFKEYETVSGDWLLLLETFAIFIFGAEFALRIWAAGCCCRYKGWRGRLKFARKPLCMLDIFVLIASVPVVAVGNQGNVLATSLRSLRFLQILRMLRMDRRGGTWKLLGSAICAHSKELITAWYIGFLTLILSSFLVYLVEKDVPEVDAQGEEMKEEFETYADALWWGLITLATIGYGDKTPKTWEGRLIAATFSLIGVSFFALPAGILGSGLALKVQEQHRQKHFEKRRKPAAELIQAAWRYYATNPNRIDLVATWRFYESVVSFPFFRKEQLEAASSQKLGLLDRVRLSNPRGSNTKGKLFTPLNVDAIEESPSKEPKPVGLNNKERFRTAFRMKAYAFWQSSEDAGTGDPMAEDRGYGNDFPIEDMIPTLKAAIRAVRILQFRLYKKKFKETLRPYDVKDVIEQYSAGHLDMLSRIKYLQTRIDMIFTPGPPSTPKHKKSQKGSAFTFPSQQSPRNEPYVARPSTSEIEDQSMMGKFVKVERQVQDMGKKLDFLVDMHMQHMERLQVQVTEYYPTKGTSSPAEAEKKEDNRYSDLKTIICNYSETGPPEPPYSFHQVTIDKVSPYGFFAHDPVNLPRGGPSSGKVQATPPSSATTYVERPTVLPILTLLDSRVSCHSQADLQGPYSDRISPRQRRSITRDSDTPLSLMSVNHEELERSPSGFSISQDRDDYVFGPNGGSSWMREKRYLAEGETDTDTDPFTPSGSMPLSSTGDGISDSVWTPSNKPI
Method: Retigabine and SF0034 at KCNQ2/3 channels. […] CHO cells transiently expressing heterologous KCNQ2/3 channels were clamped at −85 mV and KCNQ2/3 currents were measured elicited by 1 s depolarization step from −105 to +15 mV in the increment of 10 mV followed by return step to −70 mV. […] Representative current traces of KCNQ2/3 currents at increasing membrane potentials in absence and presence of 100 nM retigabine (A) and 100 nM SF0034 (C). B, D. Representative curves of normalized G-V (conductance-voltage) relationship of KCNQ2/3 currents at control and at increasing concentration of retigabine (B) and SF0034 (D). E. Summary bar graph representing half activation (V1/2) of KCNQ2/3 currents calculated from normalized G-V Boltzmann curves at control and at increasing concentration of retigabine and SF0034. […] Curves were fitted with a hill equation and EC50 values were calculated. Error bars represent mean±SEM. **p<0.01, ***p<0.001.
CHO cells transiently expressing heterologous KCNQ2/3 channels were clamped at −85 mV and KCNQ2/3 currents were measured elicited by 1 s depolarization step from −105 to +15 mV in the increment of 10 mV followed by return step to −70 mV. […] Curves were fitted with a hill equation and EC50 values were calculated. Error bars represent mean±SEM. *p<0.05, **p<0.01.
CHO cells transiently expressing heterologous KCNQ2/3 and homomeric KCNQ4 and KCNQ5 channels were clamped at −85 mV and KCNQ currents were elicited by 1 s depolarization step from −105 to +15 mV in the increment of 10 mV followed by return step to −70 mV. […] Representative current traces of KCNQ2/3 currents at increasing membrane potentials in absence and presence of 100 nM or 1 μM RL648_81. […] Representative curves of normalized G-V relationship of KCNQ2/3 currents at control and at increasing concentration of RL648_81. […] Summary bar graph representing half activation (V1/2) of KCNQ2/3 currents calculated from normalized G-V Boltzmann curves at control and at increasing concentration of RL648_81 A4. […] Curves were fitted with a hill equation and EC50 values were calculated. […] D. Summary bar graphs representing EC50 values of second generation compounds tested at KCNQ2/3 channels in comparison with SF0034.

KCNQ5 channels = molecular target: T2, KCNQ5 channels (Homo sapiens, UniProt Q9NR82); assay: KCNQ5 currents, voltage clamp of CHO cells transiently expressing homomeric KCNQ5 channels; assay type: cell-based; conditions: 100 nM and 1 μM
T2 construct: expressed in transfected cells; host or cells: CHO cells, transient expression
Method: (§1) FIG. 7. […] CHO cells transiently expressing homomeric KCNQ4 or KCNQ5 channels were clamped at −85 mV and KCNQ currents were measured elicited by 1 s depolarization step from −105 to +15 mV in the increment of 10 mV followed by return step to −70 mV. […] B1-2. […] C1-2. […] E1-2. […] F1-2. […] H1-2. […] I1-2.
(§2) FIG. 9. […] CHO cells transiently expressing heterologous KCNQ2/3 and homomeric KCNQ4 and KCNQ5 channels were clamped at −85 mV and KCNQ currents were elicited by 1 s depolarization step from −105 to +15 mV in the increment of 10 mV followed by return step to −70 mV. A1. […] A2. […] A3. […] Curves were fitted with a hill equation and EC50 values were calculated. B1.

KCNQ4 channels = molecular target: T3, KCNQ4 channels (Homo sapiens, UniProt P56696); assay: KCNQ4 currents, voltage clamp of CHO cells transiently expressing homomeric KCNQ4 channels; assay type: cell-based; conditions: 100 nM and 1 μM
T3 construct: expressed in transfected cells; host or cells: CHO cells, transient expression
Method: as §1, §2

[1] = hydrochloride salt; cited from earlier work
[2] = CHO cells, 100 nM-30 μM, Hill fit, mean±SEM, read-out: EC50 of half activation shift (ΔV1/2) of KCNQ2/3 currents

CCOC(=O)Nc1ccc(NCc2ccc(C(F)(F)F)cc2)cc1N
EC50 (KCNQ2/3 channels): 910 ± 80 nM

CCOC(=O)Nc1ccc(NCc2cccc(C(F)(F)F)c2)cc1N [NR561_50, N-[2-Amino-4-({[3-(trifluoromethyl)phenyl]methyl}amino)phenyl]ethoxycarboxamide]
activation of KCNQ5 channel currents (KCNQ5 channels): does not activate KCNQ4 and KCNQ5 channel currents significantly | EC50 (KCNQ2/3 channels; [2]): 740 ± 70 nM | activation of KCNQ4 channel currents (KCNQ4 channels): does not activate KCNQ4 and KCNQ5 channel currents significantly

CC(C)OC(=O)Nc1ccc(NCc2ccc(F)cc2)cc1N [NR561_62, N-(2-Amino-4-{[(4-fluorophenyl)methyl]amino}phenyl)(methylethoxy)carboxamide]
potency in activating KCNQ2/3 channel currents relative to SF0034 (times lower potency) (KCNQ2/3 channels; CHO cells): 2-3 times | EC50 (KCNQ2/3 channels; [2]): 1480 ± 180 nM

CCOC(=O)Nc1ccc(NCc2cccc(C(F)(F)F)c2)c(F)c1N [RL648_73, Ethyl (2-amino-3-fluoro-4-((3-(trifluoromethyl)benzyl)amino)phenyl)carbamate]
potency in activating KCNQ2/3 channel currents relative to SF0034 (times more potent) (KCNQ2/3 channels; CHO cells): 2 times

CCOC(=O)Nc1ccc(NCc2ccc(C(F)(F)F)cc2)c(F)c1N [RL648_81, Ethyl (2-amino-3-fluoro-4-((4-(trifluoromethyl)benzyl)amino)phenyl)carbamate]
activation of KCNQ5 channel currents (KCNQ5 channels): does not potentiate KCNQ4 and KCNQ5 channel currents significantly | potency in activating KCNQ2/3 channel currents relative to SF0034 (times more potent) (KCNQ2/3 channels; CHO cells): three times more potent than SF0034 | EC50 (KCNQ2/3 channels; [2]): 190 ± 20 nM | activation of KCNQ4 channel currents (KCNQ4 channels): does not potentiate KCNQ4 and KCNQ5 channel currents significantly

CCOC(=O)Nc1ccc(NCc2ccc(F)cc2)c(F)c1N [SF0034, reference compound]
shift of half activation (V1/2) of KCNQ2/3 currents from control (KCNQ2/3 channels; 100 nM): significantly shift the V1/2 | potency in activating KCNQ2/3 channel currents relative to retigabine (times more potent) (KCNQ2/3 channels; CHO cells): five-times more potent than retigabine | EC50 (KCNQ2/3 channels; [2]): 600 ± 60 nM

CCOC(=O)Nc1ccc(NCc2ccc(F)cc2)cc1N [retigabine, reference compound]
EC50 (KCNQ2/3 channels): 3300 ± 800 nM | solubility in aqueous solution [1]: only sparingly soluble

Isopropyl (2-amino-3-fluoro-4-((4-fluorobenzyl)amino)phenyl)carbamate [RL648_86]
potency in activating KCNQ2/3 channel currents relative to SF0034 (times more potent) (KCNQ2/3 channels; CHO cells): 2 times
